Assay results taken from PubChem BioAssay AID2060501 (Molecular Pharmacology Branch, DTP, NCI, 2025).
Several values for one entry are separate records, joined by “and”; a condition that tells them apart may be missing. Equal values may be shown once. One block for each compound: values may come before it.

Test system: 282377-053-R-J1-PDC complex spheroids, viability
Assay: Anticancer human tumor 282377-053-R-J1-PDC patient-derived colon adenocarcinoma cell line growth inhibition [GQUAD]
Settings: for viability, T/C: stronger effect = lower value
Text: DNA G-quadruplex Stabilizer Agents in Combinations in Complex Spheroids
A high-throughput screen of multi-cell type tumor spheroids was designed to identify active combinations of DNA G-quadruplex stabilizer agents and targeted small molecules. Complex spheroids include a stromal component modeled by human endothelial cells (HUVEC) and fibroblasts modeled by human mesenchymal stem cells (MSCs). The concentration ranges selected for each drug and investigational agent were based upon clinically achievable concentrations if the clinical Cmax of the agent was known.
Compounds. The drugs and investigational agents: pidnarulex (CX-5461; NSC782164), APTO-253 (NSC789042), BRACO-19 (NSC847499), peposertib (NSC802822), ceralasertib (NSC780249), elimusertib (NSC800525), camonsertib (NSC841442), AZD-1390 (NSC803789), olaparib (NSC753686), talazoparib (NSC767125), ART-558 (NSC835418), sotorasib (NSC818433), MRTX-1133 (NSC836407), SN-38 (NSC673596), topotecan (NSC609699), etoposide (NSC141540), doxorubicin (NSC123127), gemcitabine (NSC613327), 5-fluorouracil (NSC19893), paclitaxel (NSC125973), vemurafenib (NSC761431), panobinostat (NSC761190), R-306465 (JNJ-16241199; NSC773264), adavosertib (NSC754352), TP-3654 (NSC805149), carboplatin (NSC241240), KSQ-4279 (NSC840948), and staurosporine (NSC755774) were obtained from the National Cancer Institute (NCI) Developmental Therapeutics Program Chemical Repository (34). The FDA-approved anticancer drug set is available from the NCI Developmental Therapeutics Program. […] The stock solutions were prepared in dimethyl sulfoxide (DMSO, Sigma-Aldrich, St. Louis, MO, cat. D2650) at 800-fold the tested concentration and stored at -70 degrees C prior to their use. All drugs and investigational agents were tested over a range starting from a high concentration at or near the clinical Cmax and decreasing in half-log increments. If the clinical Cmax for an agent had not been determined, the highest concentration tested was 10 microM.
2.3 Cell Culture. All cells were maintained in an incubator at 37 degrees C and 5% CO2 with 95% humidity. The PDC lines were cultured according to standard operating procedures established by the NCI PDMR. All PDCs were thawed and cultured in Matrigel-coated flasks prepared with a working solution of 1X Ham's F-12 nutrient mix, without supplementation (Invitrogen, cat. 11765054), 100 U/mL penicillin-streptomycin (Invitrogen, cat. 15140122), and 2.5% Matrigel (Corning Inc., cat. 354248) for the first three passages. The 857933-349-R-J2-PDC line was cultured in 6C/Colon 1B media, which includes advanced DMEM/F-12 (Thermo Fisher Scientific, cat. 12634028), 10 mM HEPES (Thermo Fisher Scientific, cat. 15630080), 1X GlutaMAX supplement (Thermo Fisher Scientific, cat. 35050061), 0.1 mg/mL primocin (InvivoGen, cat. ant-pm-2), 10% defined fetal bovine serum, heat inactivated (HyClone Laboratories Inc., cat. SH30070.03HI), 50% L-WRN conditioned media (ATCC, cat. CRL-3276), 1.25 mM N-Acetyl-L-cysteine (Sigma-Aldrich, cat. A9165), 10 mM nicotinamide (Sigma-Aldrich, cat. N0636), 1X B-27 supplement (Thermo Fisher Scientific, cat. 17504044), 1X N-2 supplement (Thermo Fisher Scientific, cat. 17502048), 10 microM Y-27632 dihydrochloride (Tocris Bioscience, cat. 1254), and 50 ng/mL human EGF recombinant protein (Thermo Fisher Scientific, cat. PHG0311). The 485176-168-R4-J1-PDC line was cultured in Panc media, which includes all 6C/Colon 1B media components plus 100 ng/mL human FGF-10 (Thermo Fisher Scientific, cat. 100-26), 500 nM SB-431542 (Selleckchem, cat. S1067), and gastrin (Tocris, cat. 3006).
[…]

[1] = curve of first compound, second compound 0.0316 µM
[2] = curve of first compound, second compound 0.1 µM
[3] = curve of first compound, second compound 0.316 µM
[4] = curve of first compound, second compound 1 µM
[5] = curve of first compound, second compound 3.16 µM
[6] = curve of first compound, second compound 10 µM
[7] = second compound 0.0316 µM, first compound 0.0316 µM
[8] = second compound 0.0316 µM, first compound 0.1 µM
[9] = second compound 0.0316 µM, first compound 0.316 µM
[10] = second compound 0.0316 µM, first compound 1 µM
[11] = second compound 0.0316 µM, first compound 3.16 µM
[12] = second compound 0.0316 µM, first compound 10 µM
[13] = second compound 0.1 µM, first compound 0.0316 µM
[14] = second compound 0.1 µM, first compound 0.1 µM
[15] = second compound 0.1 µM, first compound 0.316 µM
[16] = second compound 0.1 µM, first compound 1 µM
[17] = second compound 0.1 µM, first compound 3.16 µM
[18] = second compound 0.1 µM, first compound 10 µM
[19] = second compound 0.316 µM, first compound 0.0316 µM
[20] = second compound 0.316 µM, first compound 0.1 µM
[21] = second compound 0.316 µM, first compound 0.316 µM
[22] = second compound 0.316 µM, first compound 1 µM
[23] = second compound 0.316 µM, first compound 3.16 µM
[24] = second compound 0.316 µM, first compound 10 µM
[25] = second compound 1 µM, first compound 0.0316 µM
[26] = second compound 1 µM, first compound 0.1 µM
[27] = second compound 1 µM, first compound 0.316 µM
[28] = second compound 1 µM, first compound 1 µM
[29] = second compound 1 µM, first compound 3.16 µM
[30] = second compound 1 µM, first compound 10 µM
[31] = second compound 3.16 µM, first compound 0.0316 µM
[32] = second compound 3.16 µM, first compound 0.1 µM
[33] = second compound 3.16 µM, first compound 0.316 µM
[34] = second compound 3.16 µM, first compound 1 µM
[35] = second compound 3.16 µM, first compound 3.16 µM
[36] = second compound 3.16 µM, first compound 10 µM
[37] = second compound 10 µM, first compound 0.0316 µM
[38] = second compound 10 µM, first compound 0.1 µM
[39] = second compound 10 µM, first compound 0.316 µM
[40] = second compound 10 µM, first compound 1 µM
[41] = second compound 10 µM, first compound 3.16 µM
[42] = second compound 10 µM, first compound 10 µM
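Also: spheroids exposed to compounds for 7 days before readout.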
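For viability, T/C in this document: percent of vehicle DMSO control viability with 100% = untreated-like growth.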

SMILES: CC(C)(O)C1CCC(Nc2ccc3ncc(-c4cccc(C(F)(F)F)c4)n3n2)CC1 (configuration not stated) + CN(C)c1ccc(Nc2c3ccc(NC(=O)CCN4CCCC4)cc3nc3cc(NC(=O)CCN4CCCC4)ccc23)cc1
IC50 [1]: 1800 nM
IC50 [2]: 2150 nM
IC50 [3]: 2000 nM
IC50 [4]: 1750 nM
IC50 [5]: 1650 nM
IC50 [6]: 1430 nM
viability, T/C [7]: 121%
viability, T/C [8]: 100%
viability, T/C [9]: 74%
viability, T/C [10]: 76.4%
viability, T/C [11]: 21%
viability, T/C [12]: 29%
viability, T/C [13]: 123%
viability, T/C [14]: 85%
viability, T/C [15]: 76.7%
viability, T/C [16]: 87.4%
viability, T/C [17]: 22.7%
viability, T/C [18]: 39.8%
viability, T/C [19]: 106%
viability, T/C [20]: 86%
viability, T/C [21]: 64.9%
viability, T/C [22]: 86.5%
viability, T/C [23]: 22.2%
viability, T/C [24]: 29.8%
viability, T/C [25]: 94%
viability, T/C [26]: 75.4%
viability, T/C [27]: 85.6%
viability, T/C [28]: 73.1%
viability, T/C [29]: 19.6%
viability, T/C [30]: 31.3%
viability, T/C [31]: 100%
viability, T/C [32]: 97.2%
viability, T/C [33]: 105%
viability, T/C [34]: 71%
viability, T/C [35]: 23.4%
viability, T/C [36]: 21.8%
viability, T/C [37]: 97.3%
viability, T/C [38]: 95.5%
viability, T/C [39]: 83.2%
viability, T/C [40]: 64.7%
viability, T/C [41]: 18.3%
viability, T/C [42]: 19.1%

IC50 (curve of compound): > 10000 nM and 2420 nM
SMILES: C#Cc1c(F)ccc2cc(O)cc(-c3ncc4c(N5CC6CCC(C5)N6)nc(OCC56CCCN5CC(F)C6)nc4c3F)c12 (configuration not stated)
viability, T/C (compound 0.0316 µM): 103% and 112% and 90.1%
viability, T/C (compound 0.1 µM): 102% and 93.9% and 80.2%
viability, T/C (compound 0.316 µM): 110% and 81.1% and 95.1%
viability, T/C (compound 1 µM): 86.2% and 90.6% and 93.1%
viability, T/C (compound 3.16 µM): 101% and 33.1% and 95.4%
viability, T/C (compound 10 µM): 82.8% and 42.6% and 77.7%

IC50 (curve of compound): > 316 nM
SMILES: CC[C@@]1(O)C(=O)OCc2c1cc1n(c2=O)Cc2cc3c(CN(C)C)c(O)ccc3nc2-1
viability, T/C (compound 0.000999 µM): 98.2% and 99.2% and 107%
viability, T/C (compound 0.00316 µM): 92.4% and 87.1% and 103%
viability, T/C (compound 0.00999 µM): 106% and 101% and 87.3%
viability, T/C (compound 0.0316 µM): 89.3% and 95.4% and 117%
viability, T/C (compound 0.0999 µM): 84% and 109% and 93.1%
viability, T/C (compound 0.316 µM): 57.4% and 106% and 60.5%

IC50 (curve of compound): > 10000 nM
SMILES: COc1ccc([C@@H](O)c2cc(-c3ncnc4cc(N5CCOCC5)ccc34)c(F)cc2Cl)nn1
viability, T/C (compound 0.0316 µM): 86.5% and 96.3% and 89.9%
viability, T/C (compound 0.1 µM): 85.6% and 80.6% and 90.8%
viability, T/C (compound 0.316 µM): 74.5% and 109% and 86.2%
viability, T/C (compound 1 µM): 67.9% and 79.6% and 93.6%
viability, T/C (compound 3.16 µM): 68.9% and 82.5% and 101%
viability, T/C (compound 10 µM): 57.6% and 61.8% and 71.7%

IC50 [1]: > 10000 nM
IC50 [2]: 8310 nM
IC50 [3]: 3510 nM
IC50 [4]: 328 nM
IC50 [5]: 77.8 nM
IC50 [6]: < 31.6 nM
SMILES: COc1ccc([C@@H](O)c2cc(-c3ncnc4cc(N5CCOCC5)ccc34)c(F)cc2Cl)nn1 + Cc1cnc(CNC(=O)c2c(=O)c3ccc(N4CCCN(C)CC4)nc3n3c2sc2ccccc23)cn1
viability, T/C [7]: 97%
viability, T/C [8]: 82.7%
viability, T/C [9]: 118%
viability, T/C [10]: 78.1%
viability, T/C [11]: 73.6%
viability, T/C [12]: 72%
viability, T/C [13]: 117%
viability, T/C [14]: 113%
viability, T/C [15]: 93.8%
viability, T/C [16]: 77.3%
viability, T/C [17]: 66%
viability, T/C [18]: 46.4%
viability, T/C [19]: 79.2%
viability, T/C [20]: 84.8%
viability, T/C [21]: 69.9%
viability, T/C [22]: 66.3%
viability, T/C [23]: 51.2%
viability, T/C [24]: 36.5%
viability, T/C [25]: 61.1%
viability, T/C [26]: 52%
viability, T/C [27]: 55.5%
viability, T/C [28]: 42%
viability, T/C [29]: 41.3%
viability, T/C [30]: 37.3%
viability, T/C [31]: 56.3%
viability, T/C [32]: 48.2%
viability, T/C [33]: 43.3%
viability, T/C [34]: 42.9%
viability, T/C [35]: 41.5%
viability, T/C [36]: 39.2%
viability, T/C [37]: 47%
viability, T/C [38]: 45.3%
viability, T/C [39]: 44.5%
viability, T/C [40]: 39.9%
viability, T/C [41]: 35.5%
viability, T/C [42]: 30.8%

IC50 (curve of compound): > 10000 nM
SMILES: COc1cc(C2c3cc4c(cc3C(OC3OC5COC(C)OC5C(O)C3O)C3COC(=O)C23)OCO4)cc(OC)c1O (configuration not stated)
viability, T/C (compound 0.0316 µM): 111% and 82.8% and 104%
viability, T/C (compound 0.1 µM): 90.5% and 97% and 92.2%
viability, T/C (compound 0.316 µM): 111% and 90.5% and 98.7%
viability, T/C (compound 1 µM): 99.6% and 110% and 104%
viability, T/C (compound 3.16 µM): 61.1% and 67.3% and 96.7%
viability, T/C (compound 10 µM): 56.5% and 50% and 72.2%
